According to PubChem BioAssay AID330 (DTP/NCI, 2004):
Where “and” joins values, the source holds several entries; their conditions need not be identical. Equal values may be shown once. Inconclusive results and toxic doses are left out. Rule for the calls: active = survival T/C of 150% or more; inactive = T/C below 125% in these data.

Tested on: P388 leukemia ip, CD2F1 mice, survival T/C
Assay: NCI In Vivo Anticancer Drug Screen. Data for tumor model P388 Leukemia (intraperitoneal) in CD2F1 (CDF1) mice
Details: endpoint: median survival time, higher = longer survival
How it was run: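 Mice carrying the transplanted tumor received test compound or vehicle. Survival was recorded in each group, and the value is the treated-group measurement divided by that of the vehicle-treated control group.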

[1] = dose: 50.0 mg/kg/injection, schedule: Q01DX009 (ip), vehicle: Klucel (hydroxypropylcellulose) (HPC)
[2] = dose: 15.0 mg/kg/injection, schedule: Q01DX005 (ip), vehicle: saline with Tween-80
[3] = dose: 30.0 mg/kg/injection, schedule: Q01DX005 (ip), vehicle: saline with Tween-80
[4] = dose: 60.0 mg/kg/injection, schedule: Q01DX005 (ip), vehicle: saline with Tween-80
[5] = dose: 120.0 mg/kg/injection, schedule: Q01DX005 (ip), vehicle: saline with Tween-80
[6] = dose: 240.0 mg/kg/injection, schedule: Q01DX005 (ip), vehicle: saline with Tween-80
[7] = dose: 50.0 mg/kg/injection, schedule: Q01DX005 (ip), vehicle: Klucel (hydroxypropylcellulose) (HPC)
[8] = dose: 100.0 mg/kg/injection, schedule: Q01DX005 (ip), vehicle: Klucel (hydroxypropylcellulose) (HPC)
[9] = dose: 200.0 mg/kg/injection, schedule: Q01DX005 (ip), vehicle: Klucel (hydroxypropylcellulose) (HPC)
[10] = dose: 50.0 mg/kg/injection, schedule: Q01DX005 (ip), vehicle: saline with Tween-80
[11] = dose: 100.0 mg/kg/injection, schedule: Q01DX005 (ip), vehicle: saline with Tween-80
[12] = dose: 50.0 mg/kg/injection, schedule: Q01DX009 (ip), vehicle: saline with Tween-80
[13] = dose: 200.0 mg/kg/injection, schedule: Q01DX005 (ip), vehicle: saline with Tween-80
[14] = dose: 100.0 mg/kg/injection, schedule: Q01DX009 (ip), vehicle: saline with Tween-80
[15] = dose: 200.0 mg/kg/injection, schedule: Q01DX009 (ip), vehicle: saline with Tween-80
[16] = dose: 100.0 mg/kg/injection, schedule: Q01DX009 (ip), vehicle: Klucel (hydroxypropylcellulose) (HPC)
[17] = dose: 200.0 mg/kg/injection, schedule: Q01DX009 (ip), vehicle: Klucel (hydroxypropylcellulose) (HPC)

Measured: T/C

CN([NH-])C(=S)[S-].CN([NH-])C(=S)[S-].[Pt+4]
inactive: dose: 25.0 mg/kg/injection, schedule: Q04DX003 (ip), vehicle: Klucel (hydroxypropylcellulose) (HPC) 107 % of control | dose: 50.0 mg/kg/injection, schedule: Q04DX003 (ip), vehicle: Klucel (hydroxypropylcellulose) (HPC) 100 % of control | dose: 100.0 mg/kg/injection, schedule: Q04DX003 (ip), vehicle: Klucel (hydroxypropylcellulose) (HPC) 90 % of control

Cc1cc(NS(=O)(=O)c2ccc(N)cc2)no1.[Ag]
inactive: dose: 12.5 mg/kg/injection, schedule: Q01DX009 (ip), vehicle: Klucel (hydroxypropylcellulose) (HPC) 89 % of control | dose: 25.0 mg/kg/injection, schedule: Q01DX009 (ip), vehicle: Klucel (hydroxypropylcellulose) (HPC) 101 % of control | [1] 106 % of control

O=C1c2ccccc2C(=O)N1Cc1ccc(CCl)s1
inactive: [2] 101 % of control | [3] 102 % of control | [4] 100 % of control and 105 % of control | [5] 119 % of control | [6] 112 % of control

O=C(Nc1cc(Cl)ccc1Cl)/C(Cl)=C1/Sc2ccccc2NC1=O
inactive: dose: 100.0 mg/kg/injection, schedule: Q01DX001 (ip), vehicle: saline with Tween-80 108 % of control | dose: 200.0 mg/kg/injection, schedule: Q01DX001 (ip), vehicle: saline with Tween-80 90 % of control | dose: 400.0 mg/kg/injection, schedule: Q01DX001 (ip), vehicle: saline with Tween-80 90 % of control

O=[N+]([O-])c1cc2cccc([N+](=O)[O-])c2o1
inactive: [7] 100 % of control | [8] 109 % of control | [9] 102 % of control

CC(C)OC(CCCl)c1ccc(Cl)cc1 (configuration not stated)
inactive: dose: 100.0 mg/kg/injection, schedule: Q04DX003 (ip), vehicle: saline with Tween-80 109 % of control | dose: 200.0 mg/kg/injection, schedule: Q04DX003 (ip), vehicle: saline with Tween-80 100 % of control

C[Si]1(C)CC[Si](C)(C)S1
inactive: [10] 103 % of control | [11] 108 % of control

COc1ccc2c(c1)NC(c1ccc(C(N)=S)cc1)N2 (configuration not stated)
inactive: dose: 100.0 mg/kg/injection, schedule: Q04DX002 (ip), vehicle: saline with Tween-80 89 % of control | dose: 200.0 mg/kg/injection, schedule: Q04DX002 (ip), vehicle: saline with Tween-80 87 % of control | dose: 400.0 mg/kg/injection, schedule: Q04DX002 (ip), vehicle: saline with Tween-80 88 % of control

CCCCCC1(CCBr)C(=O)NC(=O)NC1=O
inactive: [7] 100 % of control | [8] 102 % of control | [9] 108 % of control

O=c1c2ccccc2sc2c([N+](=O)[O-])ccc(NCCNCCO)c12
inactive: [12] 120 % of control and 123 % of control

Cc1cc(NS(=O)(=O)c2ccc(Nc3ccnc4cc(Cl)ccc34)cc2)no1
inactive: [10] 92 % of control | [11] 86 % of control | [13] 92 % of control

O=c1oc(-c2cccc(-c3nc4sc5c(c4c(=O)o3)CCCC5)c2)nc2sc3c(c12)CCCC3
inactive: dose: 100.0 mg/kg/injection, schedule: Q01DX001 (ip), vehicle: Klucel (hydroxypropylcellulose) (HPC) 93 % of control | dose: 200.0 mg/kg/injection, schedule: Q01DX001 (ip), vehicle: Klucel (hydroxypropylcellulose) (HPC) 91 % of control | dose: 400.0 mg/kg/injection, schedule: Q01DX001 (ip), vehicle: Klucel (hydroxypropylcellulose) (HPC) 89 % of control

CCCCOCN(COCCCC)c1ccccn1
inactive: dose: 25.0 mg/kg/injection, schedule: Q01DX009 (ip), vehicle: saline with Tween-80 103 % of control | [12] 100 % of control | dose: 50.0 mg/kg/injection, schedule: Q01DX009 (ip), vehicle: saline 111 % of control | [14] 116 % of control | dose: 100.0 mg/kg/injection, schedule: Q01DX009 (ip), vehicle: saline 122 % of control | [15] 116 % of control | dose: 200.0 mg/kg/injection, schedule: Q01DX009 (ip), vehicle: saline 117 % of control

COc1cc2c(cc1OC)[C@H](c1cc(OC)c3c(c1)OCO3)[C@H]1C(=O)OCC1C2 (some centres not stated)
inactive: [2] 89 % of control | [3] 88 % of control | [4] 90 % of control and 92 % of control | [5] 98 % of control | [6] 99 % of control

CCCCOc1ccc(-c2cnc(-c3ccc(-c4ncc(-c5ccc(OCCCC)cc5)o4)cc3)o2)cc1
inactive: dose: 3.0 mg/kg/injection, schedule: Q01DX005 (ip), vehicle: saline with Tween-80 91 % of control | dose: 6.0 mg/kg/injection, schedule: Q01DX005 (ip), vehicle: saline with Tween-80 88 % of control | dose: 25.0 mg/kg/injection, schedule: Q01DX005 (ip), vehicle: saline with Tween-80 89 % of control | [10] 87 % of control and 94 % of control | [11] 99 % of control | [13] 108 % of control

O=c1[nH]cnc(O)c1C1C=CC=CC=C1
inactive: [7] 105 % of control | [8] 114 % of control

Nc1cc(Cl)c(N=Nc2ccccc2)c(N)n1
inactive: [14] 103 % of control | [15] 107 % of control | dose: 400.0 mg/kg/injection, schedule: Q01DX009 (ip), vehicle: saline with Tween-80 94 % of control

Cc1ccc(S(=O)(=O)Sc2nnnn2-c2ccccc2)cc1
inactive: [1] 97 % of control | [16] 103 % of control | [17] 97 % of control

O=C1CC2C=CC2C1 (configuration not stated)
inactive: dose: 6.25 mg/kg/injection, schedule: Q01DX009 (ip), vehicle: saline 113 % of control | dose: 12.5 mg/kg/injection, schedule: Q01DX009 (ip), vehicle: saline 103 % of control | dose: 25.0 mg/kg/injection, schedule: Q01DX009 (ip), vehicle: saline 103 % of control | [15] 95 % of control

O=c1c2ccccc2c(=O)n2c(=O)c3ccccc3c(=O)n12
inactive: [1] 100 % of control | [16] 100 % of control | [17] 104 % of control | dose: 400.0 mg/kg/injection, schedule: Q01DX009 (ip), vehicle: Klucel (hydroxypropylcellulose) (HPC) 103 % of control

COc1ccc(N(C)C(=S)c2ccccc2)cc1
inactive: [7] 103 % of control | [8] 96 % of control | [9] 92 % of control

CSc1nccc2ccccc12
inactive: dose: 12.5 mg/kg/injection, schedule: Q01DX009 (ip), vehicle: other 96 % of control | dose: 25.0 mg/kg/injection, schedule: Q01DX009 (ip), vehicle: other 93 % of control | dose: 50.0 mg/kg/injection, schedule: Q01DX009 (ip), vehicle: other 118 % of control

CCN(CC)CCn1ncc(Sc2cc([N+](=O)[O-])ccc2N)c(Cl)c1=O
inactive: [4] 100 % of control | [5] 89 % of control

CN1C(=O)[C@@H]2OCCOCCO[C@H]3C(=O)N(C)C(=O)[C@@H]3OCCOCCO[C@H]2C1=O
inactive: dose: 25.0 mg/kg/injection, schedule: Q01DX005 (ip), vehicle: Klucel (hydroxypropylcellulose) (HPC) 112 % of control | [7] 106 % of control | [8] 87 % of control | [9] 96 % of control

CC(C)C1SCC(=O)N1N1C(=O)CSC1C(C)C (configuration not stated)
inactive: [10] 94 % of control | [11] 93 % of control | [13] 98 % of control

CN(C)S(=O)(=O)Nc1ccccn1
inactive: [12] 106 % of control | [14] 92 % of control | [15] 86 % of control

CC(Cc1ccccc1)N(C)Cc1ccc(-c2ccc(Cl)cc2)o1 (configuration not stated)
inactive: [4] 110 % of control | [5] 107 % of control | [6] 107 % of control

O=C(/C=C/c1ccc(Cl)cc1)c1ccccc1
inactive: [12] 105 % of control | [14] 103 % of control | [15] 92 % of control
